Measured values taken from PubChem BioAssay (NCI).
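A five-concentration, 48-hour dose response in 96-well plates underlies each endpoint, interpolated linearly between surrounding concentrations. GI50 is the concentration that inhibits growth by half. TGI denotes the concentration required for complete inhibition of growth.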

Assays:
Assay in all cases: DTP human tumour cell line panel, 48 h
786-0 renal = test system: 786-0 renal
BT-549 breast = test system: BT-549 breast
IGROV1 ovarian = test system: IGROV1 ovarian
MALME-3M melanoma = test system: MALME-3M melanoma
NCI-H460 lung = test system: NCI-H460 lung
NCI-H522 lung = test system: NCI-H522 lung
NCI/ADR-RES ovarian = test system: NCI/ADR-RES ovarian
SF-268 CNS = test system: SF-268 CNS
SN12C renal = test system: SN12C renal
UO-31 renal = test system: UO-31 renal

## c1ccc(CN2CCC3(CC2)SSC2(CCN(Cc4ccccc4)CC2)SS3)cc1
786-0 renal
  TGI: > 100 µM
BT-549 breast
  TGI: > 100 µM
IGROV1 ovarian
  TGI: > 100 µM
MALME-3M melanoma
  TGI: > 100 µM
NCI-H460 lung
  TGI: > 100 µM
NCI-H522 lung
  TGI: > 100 µM
NCI/ADR-RES ovarian
  TGI: > 100 µM
SF-268 CNS
  TGI: > 100 µM
SN12C renal
  TGI: > 100 µM
UO-31 renal
  TGI: > 100 µM

## CCCCCCC/C=C/[C@H]1O[C@]2(O)C(=O)C=C3C[C@@H](O[C@@H]4O[C@H](CO)[C@@H](O)C(O)[C@@H]4O)C[C@@H]3[C@H]2C=C1C (stereo not given in full)
786-0 renal
  GI50: 2.35 µM
  TGI: 7.08 µM
BT-549 breast
  GI50: 1.18 µM
  TGI: 5.53 µM
IGROV1 ovarian
  GI50: 2.77 µM
  TGI: 15.2 µM
MALME-3M melanoma
  GI50: 4.8 µM
  TGI: 10.3 µM
NCI-H460 lung
  GI50: 6.61 µM
  TGI: 24.3 µM
NCI-H522 lung
  GI50: 0.664 µM
  TGI: 1.81 µM
NCI/ADR-RES ovarian
  GI50: 1.26 µM
  TGI: 14 µM
SF-268 CNS
  GI50: 4.47 µM
  TGI: 10.3 µM
SN12C renal
  GI50: 2.8 µM
  TGI: 10.7 µM
UO-31 renal
  GI50: 0.666 µM
  TGI: 2.36 µM

## CC1(C)CCCC(C)(C2CCC3(C)C2C(O)CC2C4(C)CCC(O)C(C)(C)C4C(O)CC23C)O1 (stereo not given)
786-0 renal
  TGI: 72.5 µM
BT-549 breast
  TGI: 28.5 µM
IGROV1 ovarian
  TGI: 38.5 µM
MALME-3M melanoma
  TGI: 50.1 µM
NCI-H460 lung
  TGI: 25.3 µM
NCI-H522 lung
  TGI: 29.8 µM
NCI/ADR-RES ovarian
  TGI: 37.4 µM
SF-268 CNS
  TGI: 31.9 µM
SN12C renal
  TGI: 30.8 µM
UO-31 renal
  TGI: 24.1 µM

## CC1=C(C(=O)Nc2ccc3[nH]ncc3c2)C(c2ccc(Cl)c(Cl)c2)CC(=O)N1 (stereo not given)
786-0 renal
  GI50: > 25 µM
  TGI: > 25 µM
BT-549 breast
  GI50: 4.99 µM
  TGI: > 25 µM
IGROV1 ovarian
  GI50: 12.8 µM
  TGI: > 25 µM
MALME-3M melanoma
  GI50: 10.6 µM
  TGI: > 25 µM
NCI-H460 lung
  GI50: > 25 µM
  TGI: > 25 µM
NCI-H522 lung
  GI50: 19.5 µM
  TGI: > 25 µM
NCI/ADR-RES ovarian
  GI50: > 25 µM
  TGI: > 25 µM
SF-268 CNS
  GI50: 9.62 µM
  TGI: > 25 µM
SN12C renal
  GI50: > 25 µM
  TGI: > 25 µM
UO-31 renal
  GI50: 3.22 µM
  TGI: > 25 µM

## COc1ccc2c(Cc3c4ccccc4cc4ccccc34)cncc2c1O
786-0 renal
  TGI: 23.4 µM
BT-549 breast
  TGI: 53.1 µM
IGROV1 ovarian
  TGI: 11 µM
MALME-3M melanoma
  TGI: 55 µM
NCI-H460 lung
  TGI: 3.94 µM
NCI-H522 lung
  TGI: 21.2 µM
NCI/ADR-RES ovarian
  TGI: 9.17 µM
SF-268 CNS
  TGI: > 100 µM
SN12C renal
  TGI: > 63.9 µM
UO-31 renal
  TGI: 34.9 µM

## NC(=S)N/N=C/c1ccc(N)cn1
786-0 renal
  TGI: > 10 µM
BT-549 breast
  TGI: > 10 µM
IGROV1 ovarian
  TGI: > 10 µM
MALME-3M melanoma
  TGI: > 10 µM
NCI-H460 lung
  TGI: > 10 µM
NCI-H522 lung
  TGI: > 10 µM
NCI/ADR-RES ovarian
  TGI: > 10 µM
SF-268 CNS
  TGI: > 10 µM
SN12C renal
  TGI: > 10 µM
UO-31 renal
  TGI: 6.97 µM

## O=c1c2cccc(F)c2sc2c(N3CCNCC3)nc3ccccc3c12
786-0 renal
  GI50: 1.74 µM
  TGI: 3.28 µM
BT-549 breast
  GI50: 1.58 µM
  TGI: 3.06 µM
IGROV1 ovarian
  GI50: 1.22 µM
  TGI: 2.55 µM
MALME-3M melanoma
  GI50: 1.67 µM
  TGI: 3.07 µM
NCI-H460 lung
  GI50: 1.02 µM
  TGI: 2.34 µM
NCI-H522 lung
  GI50: 1.45 µM
  TGI: 3.18 µM
NCI/ADR-RES ovarian
  GI50: 1.6 µM
  TGI: 3.21 µM
SF-268 CNS
  GI50: 1.55 µM
  TGI: 3.26 µM
SN12C renal
  GI50: 1.32 µM
  TGI: 2.72 µM
UO-31 renal
  GI50: 0.597 µM
  TGI: 2.04 µM

## COC1=C(Br)C(O)C2(C=C1Br)CC(C(=O)NCCCCNC(=O)C1=NOC3(C=C(Br)C(OC)=C(Br)C3O)C1)=NO2 (stereo not given)
786-0 renal
  TGI: > 100 µM
BT-549 breast
  TGI: > 100 µM
IGROV1 ovarian
  TGI: 46.8 µM
MALME-3M melanoma
  TGI: 45.5 µM
NCI-H460 lung
  TGI: > 100 µM
NCI-H522 lung
  TGI: 29.8 µM
NCI/ADR-RES ovarian
  TGI: > 100 µM
SF-268 CNS
  TGI: 45.1 µM
SN12C renal
  TGI: > 100 µM
UO-31 renal
  TGI: > 100 µM

## C=C1CCC2C3(C)COC(c4c(OC)cccc4OC)OC3CCC2(C)C1C/C=C1/C(=O)OCC1O (stereo not given)
786-0 renal
  GI50: 3.34 µM
  TGI: 8.88 µM
BT-549 breast
  GI50: 2.25 µM
  TGI: 5.64 µM
IGROV1 ovarian
  GI50: 1.89 µM
  TGI: 4 µM
MALME-3M melanoma
  GI50: 8.92 µM
  TGI: 27.7 µM
NCI-H460 lung
  GI50: 4.71 µM
  TGI: 19.5 µM
NCI-H522 lung
  GI50: 2.02 µM
  TGI: 5.01 µM
NCI/ADR-RES ovarian
  GI50: 2.65 µM
  TGI: 7.03 µM
SF-268 CNS
  GI50: 3.7 µM
  TGI: 12.4 µM
SN12C renal
  GI50: 2.33 µM
  TGI: 8.27 µM
UO-31 renal
  GI50: 2.01 µM
  TGI: 4.33 µM
